Data from patent US20230146455A1, “TREATMENT OF INFLAMMATORY DISEASES WITH PEPTIDES AND PHARMACEUTICAL COMPOSITIONS” (Yuyu Pharma, Inc., priority 2020, published 2023).
Where “and” joins values, the source holds several entries; their conditions need not be identical. Equal entries are not always repeated. Where a SMILES comes first, the peptide text is derived from it. [ ]: non-standard residue; d: D form. Hyp = O=C(O)[C@@H]1C[C@@H](O)CN1

Tested on: IL-1 alpha/IL-1F1
Test: Example 8 main study Luminex, LPS hPBMCs: IL-1 alpha/IL-1F1
Assay type: cell-based, human
Procedure: Human PBMCs were pretreated with YY-101, YDE-011, YDE-043 or reference compound; Xiidra® at various concentration (ranging from […] to 500 nM) for 2 h before stimulation. An equal volume of 0.5% DMSO was used as a vehicle control. Then, the cells were treated with LPS at 5 ug/ml, which was selected based on the pilot study. The supernatants from treated cells were harvested at 24 h and placed in a 96 well for Luminex cytokine & chemokine profiling using a Luminex 200 multiplex assay (Luminex; R&D system, USA).
The main study arm with triplicate wells per group in a 24-well plate: • 1. Blank • 2. PBMC: 0.5% DMSO • 3. PBMC+LPS (5 ug/ml) • 4. PBMC+YY-101 500 nM • 5. PBMC+YY-101 50 nM • 6. PBMC+YY-101 5 nM • 7. PBMC+YY-101 0.5 nM • 8. PBMC+LPS (5 ug/ml)+Xiidra® 500 nM • 9. PBMC+LPS (5 ug/ml)+Xiidra® 50 nM • 10. PBMC+LPS (5 ug/ml)+Xiidra® 5 nM • 11. PBMC+LPS (5 ug/ml)+Xiidra® 0.5 nM • 12. PBMC+LPS (5 ug/ml)+Xiidra® 0.05 nM • 13. PBMC+LPS (5 ug/ml)+Xiidra® 0.005 nM • 14. PBMC+LPS (5 ug/ml)+YY-101 500 nM • 15. PBMC+LPS (5 ug/ml)+YY-101 50 nM • 16. PBMC+LPS (5 ug/ml)+YY-101 5 nM • 17. PBMC+LPS (5 ug/ml)+YY-101 0.5 nM • 18. PBMC+LPS (5 ug/ml)+YY-101 0.05 nM • 19. PBMC+LPS (5 ug/ml)+YY-101 0.005 nM • 20. PBMC+LPS (5 ug/ml)+YDE-011 500 nM • 21. PBMC+LPS (5 ug/ml)+YDE-011 50 nM • 22. PBMC+LPS (5 ug/ml)+YDE-011 5 nM • 23. PBMC+LPS (5 ug/ml)+YDE-011 0.5 nM • 24. PBMC+LPS (5 ug/ml)+YDE-011 0.05 nM • 25. PBMC+LPS (5 ug/ml)+YDE-011 0.005 nM • 26. PBMC+LPS (5 ug/ml)+YDE-043 500 nM • 27. PBMC+LPS (5 ug/ml)+YDE-043 50 nM • 28. PBMC+LPS (5 ug/ml)+YDE-043 5 nM • 29. PBMC+LPS (5 ug/ml)+YDE-043 0.5 nM • 30. PBMC+LPS (5 ug/ml)+YDE-043 0.05 nM • 31. PBMC+LPS (5 ug/ml)+YDE-043 0.005 nM
Multiplex assay was used to measure 30 cytokines and chemokines. The 1:200 diluted cell supernatant and serial dilution of the standard were dispensed into a 96 well plate at 50 ul/well. Then, the pre-mixed cocktail of antibody-coated magnetic beads was dispensed at 50 ul/well and incubated at room temperature for 2 h in a horizontal orbital microplate shaker at 800±500 rpm. The beads were washed using a magnetic device to prevent loss. The biotin-antibody was dispensed in 50 ul of each well and incubated at room temperature for 1 h in a shaker at 800±500 rpm. After washing, streptavidin-PE was added at 50 ul/well and incubated at room temperature for 30 min in a shaker under the same conditions. Finally, after washing, wash buffer (100 ul/well) was added to the plate and incubated in a shaker for 2 min. The Luminex™ 200 setting were set according to the manufacturer's protocol. The data was calculated with a standard five-parameter logistic nonlinear regression analysis of the data (xPonent software 4.2, USA). Results were presented as concentration (ng/ml or pg/ml).

[1] = PBMC + LPS(5 ug/ml) + test article 0.005 nM, Mean
[2] = PBMC + LPS(5 ug/ml) + test article 0.005 nM, individual replicates
[3] = PBMC + LPS(5 ug/ml) + test article 0.05 nM, Mean
[4] = PBMC + LPS(5 ug/ml) + test article 0.05 nM, individual replicates
[5] = PBMC + LPS(5 ug/ml) + test article 0.5 nM, Mean
[6] = PBMC + LPS(5 ug/ml) + test article 0.5 nM, individual replicates
[7] = PBMC + LPS(5 ug/ml) + test article 5 nM, Mean
[8] = PBMC + LPS(5 ug/ml) + test article 5 nM, individual replicates
[9] = PBMC + LPS(5 ug/ml) + test article 50 nM, Mean
[10] = PBMC + LPS(5 ug/ml) + test article 50 nM, individual replicates
[11] = PBMC + LPS(5 ug/ml) + test article 500 nM, Mean
[12] = PBMC + LPS(5 ug/ml) + test article 500 nM, individual replicates
[13] = PBMC + test article 0.5 nM, no LPS, Mean
[14] = PBMC + test article 0.5 nM, no LPS, individual replicates (1st, 2nd)
[15] = PBMC + test article 5 nM, no LPS, Mean
[16] = PBMC + test article 5 nM, no LPS, individual replicates (1st, 2nd)
[17] = PBMC + test article 0.05 uM, no LPS, Mean
[18] = PBMC + test article 0.05 uM, no LPS, individual replicates (1st, 2nd)
[19] = PBMC + test article 50 nM, no LPS, Mean
[20] = PBMC + test article 50 nM, no LPS, individual replicates (1st, 2nd)
[21] = PBMC + test article 500 nM, no LPS, Mean
[22] = PBMC + test article 500 nM, no LPS, individual replicates (1st, 2nd)

CC(C)C[C@H](NC(=O)CNC(=O)[C@H](CC(C)C)NC(=O)[C@H](CCC(N)=O)NC(=O)CNC(=O)[C@@H]1C[C@@H](O)CN1)C(=O)N[C@@H](C)C(=O)NCC(=O)N1CCC[C@H]1C(=O)N[C@@H](CCCCN)C(=O)O [YDE-011] (H-[Hyp]GQLGLAGPK-OH)
IL-1 alpha/IL-1F1 Concentration [1]: 510.2 pg/mL
IL-1 alpha/IL-1F1 MFI [1]: 31.2
IL-1 alpha/IL-1F1 Concentration [2]: 595.1 pg/mL and 460.1 pg/mL and 475.3 pg/mL
IL-1 alpha/IL-1F1 MFI [2]: 34.0 and 29.5 and 30.0
IL-1 alpha/IL-1F1 Concentration [3]: 510.3 pg/mL
IL-1 alpha/IL-1F1 MFI [3]: 31.2
IL-1 alpha/IL-1F1 Concentration [4]: 535.6 pg/mL and 550.5 pg/mL and 444.9 pg/mL
IL-1 alpha/IL-1F1 MFI [4]: 32.0 and 32.5 and 29.0
IL-1 alpha/IL-1F1 Concentration [5]: 403.8 pg/mL
IL-1 alpha/IL-1F1 MFI [5]: 27.7
IL-1 alpha/IL-1F1 Concentration [6]: 429.6 pg/mL and 383.2 pg/mL and 398.7 pg/mL
IL-1 alpha/IL-1F1 MFI [6]: 28.5 and 27.0 and 27.5
IL-1 alpha/IL-1F1 Concentration [7]: 324.6 pg/mL
IL-1 alpha/IL-1F1 MFI [7]: 25.2
IL-1 alpha/IL-1F1 Concentration [8]: 256.0 pg/mL and 288.4 pg/mL and 429.6 pg/mL
IL-1 alpha/IL-1F1 MFI [8]: 23.0 and 24.0 and 28.5
IL-1 alpha/IL-1F1 Concentration [9]: 278.0 pg/mL
IL-1 alpha/IL-1F1 MFI [9]: 23.8
IL-1 alpha/IL-1F1 Concentration [10]: 320.3 pg/mL and 84.2 pg/mL and 429.6 pg/mL
IL-1 alpha/IL-1F1 MFI [10]: 25.0 and 18.0 and 28.5
IL-1 alpha/IL-1F1 Concentration [11]: 275.3 pg/mL
IL-1 alpha/IL-1F1 MFI [11]: 24.0
IL-1 alpha/IL-1F1 Concentration [12]: 535.6 pg/mL and 1.9 pg/mL and 288.4 pg/mL
IL-1 alpha/IL-1F1 MFI [12]: 32.0 and 16.0 and 24.0

CC(C)C[C@H](NC(=O)CNC(=O)[C@H](CC(=O)O)NC(=O)[C@H](CCC(N)=O)NC(=O)CNC(=O)[C@@H]1C[C@@H](O)CN1)C(=O)N[C@@H](C)C(=O)NCC(=O)N1CCC[C@H]1C(=O)N[C@@H](CCCCN)C(=O)O [YY-101] (H-[Hyp]GQDGLAGPK-OH; N-terminus and C-terminus assumed)
IL-1 alpha/IL-1F1 Concentration [1]: 424.2 pg/mL
IL-1 alpha/IL-1F1 MFI [1]: 28.3
IL-1 alpha/IL-1F1 Concentration [2]: 414.2 pg/mL and 383.2 pg/mL and 475.3 pg/mL
IL-1 alpha/IL-1F1 MFI [2]: 28.0 and 27.0 and 30.0
IL-1 alpha/IL-1F1 Concentration [3]: 479.4 pg/mL
IL-1 alpha/IL-1F1 MFI [3]: 30.2
IL-1 alpha/IL-1F1 Concentration [4]: 414.2 pg/ml (2×) and 609.8 pg/ml
IL-1 alpha/IL-1F1 MFI [4]: 28.0 (2×) and 34.5
IL-1 alpha/IL-1F1 Concentration [5]: 455.0 pg/mL
IL-1 alpha/IL-1F1 MFI [5]: 29.3
IL-1 alpha/IL-1F1 Concentration [6]: 460.1 pg/ml (2×) and 444.9 pg/ml
IL-1 alpha/IL-1F1 MFI [6]: 29.5 (2×) and 29.0
IL-1 alpha/IL-1F1 Concentration [7]: 485.3 pg/mL
IL-1 alpha/IL-1F1 MFI [7]: 30.3
IL-1 alpha/IL-1F1 Concentration [8]: 444.9 pg/mL and 475.3 pg/mL and 535.6 pg/mL
IL-1 alpha/IL-1F1 MFI [8]: 29.0 and 30.0 and 32.0
IL-1 alpha/IL-1F1 Concentration [9]: 429.2 pg/mL
IL-1 alpha/IL-1F1 MFI [9]: 28.5
IL-1 alpha/IL-1F1 Concentration [10]: 383.2 pg/mL and 398.7 pg/mL and 505.6 pg/mL
IL-1 alpha/IL-1F1 MFI [10]: 27.0 and 27.5 and 31.0
IL-1 alpha/IL-1F1 Concentration [11]: 449.6 pg/mL
IL-1 alpha/IL-1F1 MFI [11]: 29.2
IL-1 alpha/IL-1F1 Concentration [12]: 460.1 pg/mL and 505.6 pg/mL and 383.2 pg/mL
IL-1 alpha/IL-1F1 MFI [12]: 29.5 and 31.0 and 27.0
IL-1 alpha/IL-1F1 Concentration [13]: 155.5 pg/mL
IL-1 alpha/IL-1F1 MFI [13]: 20.0
IL-1 alpha/IL-1F1 Concentration [14]: 155.5 pg/mL
IL-1 alpha/IL-1F1 MFI [14]: 20.0
IL-1 alpha/IL-1F1 Concentration [15]: 155.5 pg/mL
IL-1 alpha/IL-1F1 MFI [15]: 20.0
IL-1 alpha/IL-1F1 Concentration [16]: 155.5 pg/mL
IL-1 alpha/IL-1F1 MFI [16]: 20.0
IL-1 alpha/IL-1F1 Concentration [17]: 92.0 pg/mL
IL-1 alpha/IL-1F1 MFI [17]: 18.3
IL-1 alpha/IL-1F1 Concentration [18]: 45.8 pg/mL and 138.1 pg/mL
IL-1 alpha/IL-1F1 MFI [18]: 17.0 and 19.5
IL-1 alpha/IL-1F1 Concentration [19]: 111.1 pg/mL
IL-1 alpha/IL-1F1 MFI [19]: 18.8
IL-1 alpha/IL-1F1 Concentration [20]: 138.1 pg/mL and 84.2 pg/mL
IL-1 alpha/IL-1F1 MFI [20]: 19.5 and 18.0
IL-1 alpha/IL-1F1 Concentration [21]: 84.2 pg/mL
IL-1 alpha/IL-1F1 MFI [21]: 18.0
IL-1 alpha/IL-1F1 Concentration [22]: 84.2 pg/mL
IL-1 alpha/IL-1F1 MFI [22]: 18.0
